Test results taken from patent US8772323B2, “Benzoxazole- and tetrahydrobenzoxazole-substituted pyridazinones as GPR119 agonists” (Boehringer Ingelheim International GmbH, priority 2010, dated 2014).
Where a name gives a salt, the structure may show the parent alone.

Target: human GPR119 (Homo sapiens (Human), UniProt Q8TDV5)
Assay: AlphaScreen cAMP assay in Min-6/hGPR119 cells (GPR119 activation, intracellular cAMP)
Type: cell-based
Settings: MIN6 cells stably transfected with human GPR119; 45 minutes' incubation at RT; AlphaScreen cAMP Assay Kit
Experimental: The compounds of formula I according to the invention are GPR119 agonists. The effect of the compounds on the activation of GPR119 and on the stimulation of intracellular cAMP concentration is determined using the AlphaScreen cAMP Assay Kit (Cat. No. #6760625R) made by PerkinElmer.
MIN6 cells [Miyazaki J et al. Endocrinology. 1990 July; 127(1):126-32] were stably transfected with an expression vector for human GPR119 cDNA (Acc. No. NP_848566). Min-6/hGPR119 cells are cultured in DMEM, 10% FBS, 50 μM β-mercaptoethanol, 0.3 mg/mL Geniticin, 2 mM GlutaMAX at 37° C. 5% CO2. For the assay, the cells are placed in Optiplates (white, 384-well, 160W-barcoded, TC, sterile with lid, Cat. No. #6007688 (Perkin Elmer); 10000 cells/well; 50 μl). The plates covered with lids are then incubated for 24 hours at 37° C./5% CO2.
After the medium has been sucked out of the wells completely, 10 μl of the test compound are added, the compounds are diluted beforehand with stimulating buffer (140 mM NaCl, 3.6 mM KCl, 0.5 mM NaH2PO4, 0.5 mM MgSO4, 1.5 mM CaCl2, 10 mM Hepes, 5 mM NaHCO3; pH 7.4. 0.5 mM IBMX and 0.1% BSA, the final DMSO concentration is 1%). After 45 minutes' incubation at RT, the cAMP concentrations are determined using the AlphaScreen cAMP Assay Kit (Cat. No. #6760625R from PerkinElmer).

human GPR119, sequence (Q8TDV5 whole entry): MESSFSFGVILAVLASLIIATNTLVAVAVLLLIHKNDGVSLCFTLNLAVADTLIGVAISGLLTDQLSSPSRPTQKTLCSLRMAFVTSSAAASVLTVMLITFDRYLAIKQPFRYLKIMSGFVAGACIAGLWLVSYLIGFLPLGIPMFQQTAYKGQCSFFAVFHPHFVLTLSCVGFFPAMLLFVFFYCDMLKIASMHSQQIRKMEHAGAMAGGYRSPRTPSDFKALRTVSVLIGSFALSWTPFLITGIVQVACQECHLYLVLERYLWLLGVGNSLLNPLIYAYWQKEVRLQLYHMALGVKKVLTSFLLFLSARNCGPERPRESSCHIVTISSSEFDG

EC50 [nM] | SMILES
874 | CCCC1CC(=O)NN=C1c1ccc2nc(-c3ccccc3)oc2c1 (centres unmarked) [Example 8, 6-(2-phenyl-benzoxazol-6-yl)-5-propyl-4,5-dihydro-2H-pyridazin-3-one]
596 | C[C@@H]1CC(c2ccc3nc(-c4ccccc4)oc3c2)=NNC1=O [Example 4, (R)-4-methyl-6-(2-phenyl-benzoxazol-6-yl)-4,5-dihydro-2H-pyridazin-3-one]
> 10000 | CC1(C)CC(c2ccc3nc(-c4ccccc4)oc3c2)=NNC1=O [Example 21, 4.4-dimethyl-6-(2-phenyl-benzoxazol-6-yl)-4,5-dihydro-2H-pyridazin-3-one]
442 | CCC1CC(=O)NN=C1c1ccc2nc(-c3cccc(OC(C)C)c3)oc2c1 (centres unmarked) [Example 100, 5-ethyl-6-[2-(3-isopropoxy-phenyl)-benzoxazol-6-yl]-4,5-dihydro-2H-pyridazin-3-one]
120 | CCC1CC(=O)NN=C1c1ccc2nc(-c3ccc(OC(C)(C)CN4CCOCC4)cc3)oc2c1 (centres unmarked) [Example 231, 6-{2-[4-(1,1-dimethyl-2-morpholin-4-yl-ethoxy)-phenyl]-benzoxazol-6-yl}-5-ethyl-4,5-dihydro-2H-pyridazin-3-one]
735 | CCC1CC(=O)NN=C1c1ccc2nc(-c3cccc(OCCN4CCC(C#N)CC4)c3)oc2c1 (centres unmarked) [Example 153, 1-(2-{3-[6-(4-ethyl-6-oxo-1,4,5,6-tetrahydro-pyridazin-3-yl)-benzoxazol-2-yl]-phenoxy}-ethyl)-piperidine-4-carbonitrile]
5100 | Cc1ccc(-c2nc3ccc(C4=NNC(=O)[C@@H](C)[C@H]4C)cc3o2)s1 [Example 24, (4S,5R)-4,5-dimethyl-6-[2-(5-methyl-thiophen-2-yl)-benzoxazol-6-yl]-4,5-dihydro-2H-pyridazin-3-one]
306 | CCC1CC(=O)NN=C1c1ccc2nc(-c3ccc(OC4CCCCCN4C)cc3)oc2c1 (centres unmarked) [Example 234, 5-ethyl-6-{2-[4-(1-methyl-2-azepan-2-yloxy)-phenyl]-benzoxazol-6-yl}-4,5-dihydro-2H-pyridazin-3-one]
1750 | O=C1NN=C(c2ccc3nc(-c4ccc(CN5CCOCC5)cc4)oc3c2)C2CC12 (centres unmarked) [Example 22, 5-[2-(4-morpholin-4-ylmethyl-phenyl)-benzoxazol-6-yl]-3,4-diaza-bicyclo[4.1.0]hept-4-en-2-one]
82 | CCC1CC(=O)NN=C1c1ccc2nc(-c3ccc(OC4CCCC4)cc3)oc2c1 (centres unmarked) [Example 176, 6-[2-(4-cyclopentyloxy-phenyl)-benzoxazol-6-yl]-5-ethyl-4,5-dihydro-2H-pyridazin-3-one]
869 | CC(C)C1CC(=O)NN=C1c1ccc2nc(-c3ccccc3)oc2c1 (centres unmarked) [Example 32, 5-isopropyl-6-(2-phenyl-benzoxazol-6-yl)-4,5-dihydro-2H-pyridazin-3-one]
58 | CC1CC(=O)NN=C1c1ccc2nc(-c3ccc(OCc4ccccc4)cc3)oc2c1 (centres unmarked) [Example 36, 6-[2-(4-benzyloxy-phenyl)-benzoxazol-6-yl]-5-methyl-4,5-dihydro-2H-pyridazin-3-one]
414 | O=c1ccc(-c2ccc3nc(-c4ccccc4)oc3c2)n[nH]1 [Example 204, 6-(2-phenyl-1,3-benzoxazol-6-yl)-2,3-dihydropyridazin-3-one]
158 | CCC1CC(=O)NN=C1c1ccc2nc(-c3ccc(OCc4cccs4)cc3)oc2c1 (centres unmarked) [Example 51, 5-ethyl-6-{2-[4-(thiophen-2-ylmethoxy)-phenyl]-benzoxazol-6-yl}-4,5-dihydro-2H-pyridazin-3-one]
70 | CCC1CC(=O)NN=C1c1ccc2nc(-c3ccc(OCc4ccccc4)cc3)oc2c1 (centres unmarked) [Example 33, 6-[2-(4-benzyloxy-phenyl)-benzoxazol-6-yl]-5-ethyl-4,5-dihydro-2H-pyridazin-3-one]
223 | O=C1NN=C(c2ccc3nc(-c4cccc(F)c4)oc3c2)C2CC12 (centres unmarked) [Example 17, 5-[2-(3-fluoro-phenyl)-benzoxazol-6-yl]-3,4-diaza-bicyclo[4.1.0]hept-4-en-2-one]
42 | CCC1CC(=O)NN=C1c1ccc2nc(-c3ccc(N(C)C)cc3)oc2c1 (centres unmarked) [Example 96, 6-[2-(4-dimethylamino-phenyl)-benzoxazol-6-yl]-5-ethyl-4,5-dihydro-2H-pyridazin-3-one]
275 | CCC1CC(=O)NN=C1c1ccc2nc(-c3ccc(OCc4ncccn4)cc3)oc2c1 (centres unmarked) [Example 40, 5-ethyl-6-{2-[4-(pyrimidin-2-ylmethoxy)-phenyl]-benzoxazol-6-yl}-4,5-dihydro-2H-pyridazin-3-one]

EC50 [nM] | SMILES
987 | CCC1NC(=O)NN=C1c1ccc2nc(-c3ccccc3)oc2c1 (centres unmarked) [Example 144, 5-ethyl-6-(2-phenyl-benzoxazol-6-yl)-4,5-dihydro-2H-[1,2,4]triazin-3-one]
578 | CC[C@@H]1OC(=O)NN=C1N1CCc2nc(-c3ccccc3)oc2C1 [Example 207, (S)-6-ethyl-5-(2-phenyl-6,7-dihydro-4H-oxazolo[5,4-c]pyridin-5-yl)-3,6-dihydro-[1.3.4]oxadiazin-2-one]
60 | CCC1CC(=O)NN=C1c1ccc2nc(-c3ccc(OC4CCN(C(=O)OC(C)(C)C)CC4)cc3)oc2c1 (centres unmarked) [Example 68, tert-butyl 4-{4-[6-(4-ethyl-6-oxo-1,4,5,6-tetrahydro-pyridazin-3-yl)-benzoxazol-2-yl]-phenoxy}-piperidin-1-carboxylate]
334 | COc1cccc(-c2nc3ccc(C4=NNC(=O)CC4C)cc3o2)c1 (centres unmarked) [Example 85, 6-[2-(3-methoxy-phenyl)-benzoxazol-6-yl]-5-methyl-4,5-dihydro-2H-pyridazin-3-one]
615 | CCC1OC(=O)NN=C1c1ccc2nc(-c3ccccc3)oc2c1 (stereo in doubt) [Example 80, (R)-6-ethyl-5-(2-phenyl-benzoxazol-6-yl)-3,6-dihydro-[1,3,4]oxadiazin-2-one]
226 | CCC1CC(=O)NN=C1c1ccc2nc(-c3ccc(OCc4ccccn4)cc3)oc2c1 (centres unmarked) [Example 47, 5-ethyl-6-{2-[4-(pyridin-2-ylmethoxy)-phenyl]-benzoxazol-6-yl}-4,5-dihydro-2H-pyridazin-3-one]
590 | CCC1CC(=O)NN=C1c1ccc2nc(-c3ccc(OC(C)CN4CCCC4)cc3)oc2c1 (centres unmarked) [Example 210, 5-ethyl-6-[2-(4-{[1-(pyrrolidin-1-yl)propan-2-yl]oxy}phenyl)-1,3-benzoxazol-6-yl]-2,3,4,5-tetrahydropyridazin-3-one]
333 | CC[C@H]1CC(=O)NN=C1c1ccc2nc(-c3ccc(OC4CCOCC4)cc3)oc2c1 [Example 194, (S)-5-ethyl-6-{2-[4-(tetrahydro-pyran-4-yloxy)-phenyl]-benzoxazol-6-yl}-4,5-dihydro-2H-pyridazin-3-one]
636 | CCC1CC(=O)NN=C1c1ccc2nc(-c3ccc(O)cc3)oc2c1 (centres unmarked) [Example 37, 5-ethyl-6-[2-(4-hydroxy-phenyl)-benzoxazol-6-yl]-4,5-dihydro-2H-pyridazin-3-one]
1090 | CCC1CC(=O)NN=C1c1ccc2nc(-c3ccc(OCCN4CCN(C)CC4)cc3)oc2c1 (centres unmarked) [Example 44, 5-ethyl-6-(2-{4-[2-(4-methyl-piperazin-1-yl)-ethoxy]-phenyl}-benzoxazol-6-yl)-4,5-dihydro-2H-pyridazin-3-one dihydrochloride]
197 | CCC1CC(=O)NN=C1c1ccc2nc(-c3ccc(OCCN4CCC(C)CC4)cc3)oc2c1 (centres unmarked) [Example 243, 5-ethyl-6-(2-{4-[2-(4-methyl-piperidin-1-yl)-ethoxy]-phenyl}-benzoxazol-6-yl)-4,5-dihydro-2H-pyridazin-3-one]
324 | CCC1CC(=O)NN=C1c1ccc2nc(-c3ccc(OCc4cnco4)cc3)oc2c1 (centres unmarked) [Example 63, 5-ethyl-6-{2-[4-(oxazol-5-ylmethoxy)-phenyl]-benzoxazol-6-yl}-4,5-dihydro-2H-pyridazin-3-one]
486 | CCC1CC(=O)NN=C1c1ccc2nc(-c3ccc(OCCN(C)C)cc3)oc2c1 (centres unmarked) [Example 55, 6-{2-[4-(2-dimethylamino-ethoxy)-phenyl]-benzoxazol-6-yl}-5-ethyl-4,5-dihydro-2H-pyridazin-3-one]
967 | O=C1CCC(c2ccc3nc(-c4cccs4)oc3c2)=NN1 [Example 111, 6-(2-thiophen-2-yl-benzoxazol-6-yl)-4,5-dihydro-2H-pyridazin-3-one]
701 | O=C1NN=C(c2ccc3nc(-c4ccc(CN5CCCCC5)cc4)oc3c2)C2CC12 (centres unmarked) [Example 15, 5-[2-(4-piperidin-1-ylmethyl-phenyl)-benoxazol-6-yl]-3,4-diaza-bicyclo[4.1.0]hept-4-en-2-one]
100 | Cc1ccc(-c2nc3ccc(C4=NNC(=O)CC4C)cc3o2)s1 (centres unmarked) [Example 87, 5-methyl-6-[2-(5-methyl-thiophen-2-yl)-benzoxazol-6-yl]-4,5-dihydro-2H-pyridazin-3-one]
639 | CCC1CC(=O)NN=C1c1ccc2nc(-c3cccc(OCCN4CC(C)OC(C)C4)c3)oc2c1 (centres unmarked) [Example 216, 6-(2-{3-[2-(2,6-dimethyl-morpholin-4-yl)-ethoxy]-phenyl}-benzoxazol-6-yl)-5-ethyl-4,5-dihydro-2H-pyridazin-3-one]
